Patent US20100292306A1, “Compositions And Methods For The Treatment Of Muscular Dystrophy” (priority 2005, published 2010)

Tests used:
[1] = tested on: NFκB; assay: Trans AM assays of NFκB in gastrocnemius muscle preparations; assay type: in vivo, mdx mice; settings: chronic PDTC
Excerpt: The Trans AM assay and corresponding electrophoretic mobility shift assays (EMSA), along with Western Blot analyses of IκB-α (FIG. 1) and total cellular NFκB, are useful for screening compounds that inhibit the NFκB pathway in dystrophic skeletal muscle and identifying new compounds that have corresponding beneficial effects in treating dystrophic subjects.

[2] = tested on: nuclear p65 activation; assay: TransAM NF-κB ELISA of nuclear p65 activation in mdx costal diaphragm; assay type: in vivo, mdx mice
Description: Cytosolic and nuclear fractions were obtained from isolated costal diaphragm using techniques that were slightly modified from Kumar and Boriek (2003). The muscles were removed from vehicle and drug-treated euthanized mdx mice at the end of the treatment period, and were flash-frozen and stored at −80° C. for a period of 1 to 4 weeks. The muscles were then thawed and weighed before being homogenized on ice using a mortar and pestle in low salt lysis (LSL) buffer (1 mg muscle wet weight/18 μl solution; in mM: 10 HEPES, 10 KCl, 1.5 MgCl2, 0.1 EDTA, 0.1 EGTA, 1 dithiothreitol (DTT), 0.5 phenylmethylsulfonylfluoride (PMSF); 0.5 mg/ml benzamidine, 4.0 μl/ml protease inhibitor cocktail Sigma #8340 (PIC) to produce the following final concentrations—2.1 μg/ml leupeptin, 3.85 μg/ml aprotinin, 0.416 mM AEBSF (Sigma A8456), 16 μM bestatin, 6 μM pepstatin A, 5.6 μM E64; pH 7.9). To lyse the cells, the ground tissue was then subjected to 2 freeze-thaw cycles (5 min freeze on dry ice followed by thawing at room temperature), and was subsequently vortexed and centrifuged (13,000 rpm, 15 s). The supernatant cytosolic extract was immediately frozen (−80° C.) for subsequent analyses as needed, while the nuclear pellet was washed in 50 μl LSL (2 times) before being re-suspended on ice in a high salt nuclear extraction buffer (in mM: 20 HEPES, 420 NaCl, 1 EDTA, 1 EGTA, 1 DTT, 0.5 PMSF; 25% glycerol, 0.5 mg/ml benzamidine, 4.0 μl/ml PIC; pH 7.9) at a ratio of 4 μl of solution per mg muscle wet weight. Preparations were incubated on ice for 30 min and vortexed for 10 s every 5 min before being centrifuged (13,000 rpm, 6 min) at 4° C. The supernatant nuclear extract was then removed and frozen (−80° C.) for subsequent analyses. Potential contamination of nuclear extracts with cytoplasmic proteins was less than 5%. Protein determinations for each fraction were obtained using the Bradford assay.
The Trans-Am assay (Active Motif; Carlsbad, Calif.) was used to determine nuclear NF-κB activation in nuclear fractions which were applied to the 96 well ELISA plates at 2-20 μg protein. The p65 primary antibody (catalogue number 40096) was used to detect p65 bound to oligonucleotide in vehicle and drug-treated preparations in accordance with kit instructions. A nuclear extract from Jurkat cells was routinely run as a positive control in association with each set of control and experimental samples.
Horizontal dashed lines indicate average levels observed in nondystrophic, vehicle, and UDCA treated preparations as indicated. In each case, percent recovery is determined by dividing the mean improvement observed in the UDCA treated preparation (UDCA-vehicle) from the deficit observed in the vehicle-treated preparation (nondystrophic-vehicle mdx). Mdx mice were treated for 30 days beginning at 1 month of age. Horizontal dashed lines in (A) and (B) representing nondystrophic values were obtained from a cohort of nondystrophic mice at 2 months of age. […] The results were obtained from two separate groups of vehicle and UDCA treated preparations that were assayed using two different 96 well plates. For each plate, the absorbance for each sample was normalized to the average absorbance determined for the vehicle-treated preparations on that plate. […] Millman et al., 2007. N is the number of mice and preparations in each condition. Shown are the means and standard errors. […] indicate p<0.05 and p<0.01, respectively, between vehicle and UDCA treated preparations. […]

## S=C(S)N1CCCC1 [PDTC, pyrrolidine dithiocarbamate]
[1]
  proportion of total cellular NFκB in the cytosolic fraction: increases
[1]; adult mdx
  proportion of nuclear NFκB: reduces
  total cellular NFκB: reduces
[2]; mature adult mdx, PDTC 50 mg/kg/day ip 30 days, not significant, p=0.4, N=4 vehicle, N=3 PDTC
  reduction of nuclear p65 activation: 23%
[2]; young adult mdx, PDTC 60 days beginning at 30 days of age, N=5 per group
  effect on nuclear p65 activation: no effect
